Where “and” joins values, the source holds several entries; their conditions need not be identical. Equal values may be shown once. Read-outs that look alike come from different tables or passages of the source.
Legend:
[1] = tested on: patients with ALS
[2] = tested on: patients with ALS; remark: listed apart in the source
[3] = combined active treatment groups, Part 1

CCCN[C@@H]1CCc2nc(N)sc2C1 [dexpramipexole, (6R)-2-amino-4,5,6,7-tetrahydro-6-(propylamino)benzothiazole]
Total AE's ([1]; 50 mg, 12 weeks): 19 (82.6%) N (%) | percentage of subjects reporting AEs ([1]; 50 mg, Part 1): 83% | subjects reporting SAEs ([1]; 50 mg, Part 1): 2 subjects | subjects with at least 1 AE possibly or probably treatment-related ([1]; 50 mg, Part 1): 17% | Total AE's ([1]; 150 mg, 12 weeks): 25 (96.2%) N (%) | Total AE's ([1]; 300 mg, 12 weeks): 23 (88.5%) N (%) | percentage of subjects reporting AEs ([1]; 300 mg, Part 1): 89% | subjects discontinued due to adverse event (nausea) ([1]; 300 mg, Part 1): 1 subjects | subjects reporting SAEs ([1]; 300 mg, Part 1): 3 subjects | subjects with at least 1 AE possibly or probably treatment-related ([1]; 300 mg, Part 1): 27% | deaths during Part 1 ([1]; 50, 150, 300 mg, 12 weeks): No deaths | AE fall [1, 3]: 32% | AE headache [1, 3]: 13% | AE muscular weakness [1, 3]: 24% | AE nausea [1, 3]: 11% | AE post lumber puncture syndrome [1, 3]: 19% | safety and tolerability ([1]; total daily doses of 50, 150, 300 mg, 12 weeks): safe and well-tolerated | Unadjusted Slope Estimate, Bulbar ([2]; 50 mg): −0.364 | Unadjusted Slope Estimate, Fine ([2]; 50 mg): −0.311 | Unadjusted Slope Estimate, Gross ([2]; 50 mg): −0.305 | Unadjusted Slope Estimate, Resp ([2]; 50 mg): −0.270 | Zero Imputation Slope Estimate, Bulbar ([2]; 50 mg): −0.578 | Zero Imputation Slope Estimate, Fine ([2]; 50 mg): −0.440 | Zero Imputation Slope Estimate, Gross ([2]; 50 mg): −0.390 | Zero Imputation Slope Estimate, Resp ([2]; 50 mg): −0.575 | joint rank test of survival and ALSFRS-R (generalized Gehan Wilcoxon test) ([2]; 50 mg versus 300 mg, through Week 28, p=0.046): statistically significant difference | McGill SIS, Mean (SE) ([2]; 50 mg, Endpoint of Part 2): 5.9 (0.38) | McGill SIS, Mean Δ (SE) from baseline ([2]; 50 mg, Endpoint of Part 2): −0.5 (0.27) | McGill SIS, Median Δ ([2]; 50 mg, Endpoint of Part 2): 0.0 | Upright Vital Capacity, Mean (SE) ([2]; 50 mg, Endpoint of Part 2): 62.2 (4.19) % predicted | Upright Vital Capacity, Mean Δ (SE) from baseline of Part 2 ([2]; 50 mg, Endpoint of Part 2): −14.6 (3.54) % predicted | Upright Vital Capacity, Median Δ ([2]; 50 mg, Endpoint of Part 2): −11.5 % predicted | McGill SIS, Mean (SE) ([2]; 50 mg, Week 8): 6.2 (0.37) | McGill SIS, Mean Δ (SE) from baseline ([2]; 50 mg, Week 8): −0.2 (0.19) | McGill SIS, Median Δ ([2]; 50 mg, Week 8): 0.0 | Upright Vital Capacity, Mean (SE) ([2]; 50 mg, Week 8): 73.7 (2.92) % predicted | Upright Vital Capacity, Mean Δ (SE) from baseline of Part 2 ([2]; 50 mg, Week 8): −3.2 (1.67) % predicted | Upright Vital Capacity, Median Δ ([2]; 50 mg, Week 8): −1.9 % predicted | McGill SIS, Mean (SE) ([2]; 50 mg, Week 12): 6.5 (0.34) | McGill SIS, Mean Δ (SE) from baseline ([2]; 50 mg, Week 12): −0.1 (0.20) | McGill SIS, Median Δ ([2]; 50 mg, Week 12): 0.0 | Upright Vital Capacity, Mean (SE) ([2]; 50 mg, Week 12): 72.9 (3.82) % predicted | Upright Vital Capacity, Mean Δ (SE) from baseline of Part 2 ([2]; 50 mg, Week 12): −4.0 (2.19) % predicted | Upright Vital Capacity, Median Δ ([2]; 50 mg, Week 12): −3.1 % predicted | McGill SIS, Mean (SE) ([2]; 50 mg, Week 16): 6.1 (0.37) | McGill SIS, Mean Δ (SE) from baseline ([2]; 50 mg, Week 16): −0.3 (0.22) | McGill SIS, Median Δ ([2]; 50 mg, Week 16): 0.0 | McGill SIS, Mean (SE) ([2]; 50 mg, Week 20): 6.1 (0.33) | McGill SIS, Mean Δ (SE) from baseline ([2]; 50 mg, Week 20): −0.7 (0.22) | McGill SIS, Median Δ ([2]; 50 mg, Week 20): −1.0 | Upright Vital Capacity, Mean (SE) ([2]; 50 mg, Week 20): 75.8 (4.02) % predicted | Upright Vital Capacity, Mean Δ (SE) from baseline of Part 2 ([2]; 50 mg, Week 20): −6.0 (3.36) % predicted | Upright Vital Capacity, Median Δ ([2]; 50 mg, Week 20): −7.2 % predicted | McGill SIS, Mean (SE) ([2]; 50 mg, Week 24): 6.3 (0.43) | McGill SIS, Mean Δ (SE) from baseline ([2]; 50 mg, Week 24): −0.4 (0.23) | McGill SIS, Median Δ ([2]; 50 mg, Week 24): 0.0 | McGill SIS, Mean (SE) ([2]; 50 mg, Week 28): 5.9 (0.45) | McGill SIS, Mean Δ (SE) from baseline ([2]; 50 mg, Week 28): −0.7 (0.23) | McGill SIS, Median Δ ([2]; 50 mg, Week 28): 0.0 | Upright Vital Capacity, Mean (SE) ([2]; 50 mg, Week 28): 69.5 (3.79) % predicted | Upright Vital Capacity, Mean Δ (SE) from baseline of Part 2 ([2]; 50 mg, Week 28): −12.4 % predicted and −12.4 (3.00) % predicted | Upright Vital Capacity, Median Δ ([2]; 50 mg, Week 28): −10.4 % predicted | decline in ALSFRS-R scores (repeated measures mixed effect model) ([2]; 50 mg, Week 28): −7.05 | subjects who died (incl. after discontinuation) ([2]; 50 mg, double-blind period through Week 28): 9 (19%) N (%) and 9 N (%) | total number of deaths ([2]; 50 mg, first 24-week randomized active treatment period): 7 | did not require tracheostomy and did not die ([2]; 50 mg, through Week 28): 81% | mean change from baseline in ALSFRS-R total score ([2]; 50 mg, through Week 28): −6.5

Reference: US20130245081A1, “Compositions and Methods for Treating Amyotrophic Lateral Sclerosis” (priority 2009, published 2013)
